Source: patent US20020177543A1, “Method for determining the activity of uncoupling proteins (UCPs) by monitoring NAD(P)H consumption” (priority 2000, published 2002)

What was measured:
[1] = target: T1, UCP1 (Rattus norvegicus, UniProt P04633); test: Respiration rate from oxygen consumption (oxygen electrode), mitochondria that express UCP1; assay type: biochemical; details: UCP1 mitochondria of S. cerevisiae; GDP 3 mM, palmitate 48 μM, FCCP 10 μM (uncoupled respiration); basal 218
T1 construct: made in house; host or cells: Saccharomyces cerevisiae W303, vector pYeDP-UCP (gal-cyc promoter); isolated mitochondria
T1 sequence (P04633 1-307): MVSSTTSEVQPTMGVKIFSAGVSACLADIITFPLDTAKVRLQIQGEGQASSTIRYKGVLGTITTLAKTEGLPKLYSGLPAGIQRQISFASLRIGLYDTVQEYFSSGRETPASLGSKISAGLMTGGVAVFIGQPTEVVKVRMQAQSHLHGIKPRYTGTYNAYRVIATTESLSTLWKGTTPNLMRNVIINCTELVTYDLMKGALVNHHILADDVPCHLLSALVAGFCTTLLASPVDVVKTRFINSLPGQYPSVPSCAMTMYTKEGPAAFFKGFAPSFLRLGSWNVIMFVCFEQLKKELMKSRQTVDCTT
Description: (§1) To isolate the mitochondria required for the subsequent experiments, yeasts of the strain Saccharomyces cerevisiae W303 that express UCP1 were inoculated into SP growth medium (0.67% nitrogen substrate, 0.1% casamino acids, 20 mg/ml tryptophan, 40 mg/ml adenine, 0.1% phosphate, 0.12% ammonium sulphate, 0.1% glucose, 2% lactic acid, pH 4.5) 36 hours before extraction of the mitochondria; 12 or 14 hours before extraction they were diluted in SG medium (0.67% nitrogen substrate, 0.1% casamino acids, 20 mg/ml tryptophan, 40 mg/ml adenine, 2% galactose pH 4.5) adjusting the optical density at 600 nm to between 0.3-0.4 absorbance units [Arechaga I, Raimbault S. et al., (1993) Cysteine residues are not essential for uncoupling protein function. Biochem. J. 296. 693-700].
The mitochondria were prepared following a procedure based on that of Guerin et al., [Guerin B, Labbe P. Somlo M (1979) Preparation of yeast mitochondria (Saccharomyces cerevisiae) with good P/O and respiratory ratios Methods Enzymol. 55: 149-159]. The protoplasts are prepared by enzymatic digestion of the cell wall with cytohelicase and after their homogenization mitochondria are isolated by differential centrifugation [Arechaga I., Raimbault S. et al., (1993) Cysteine residues are not essential for uncoupling protein function. Biochem. J. 296. 693-700]. […]

[2] = tested on: Control mitochondria; test: Respiration rate from oxygen consumption (oxygen electrode), Control mitochondria; assay type: biochemical, Saccharomyces cerevisiae; details: CONTROL mitochondria of S. cerevisiae; GDP 3 mM, palmitate 48 μM, FCCP 10 μM (uncoupled respiration); basal 144
[3] = target: T1, UCP1; test: Respiration rate by monitoring NADH fluorescence (NADH consumption), mitochondria that express UCP1; assay type: biochemical; details: GDP 3 mM, palmitate 48 μM
Description: as §1, with “693-700]. […]” for “693-700].”
The second method, which is the object of the present invention, is based on determining the respiration rate by measuring the consumption of NAD(P)H. All the assays were performed on a 96-well micro-titre standardized plate (Nunc., Denmark). […] Fluorescence measurements were done using a POLAR star Galaxy plate reader (BMG Laboratories OmbH, Offenburg, Germany). […] Changes in the fluorescence signal were determined every 30 seconds in each well with an average of 6-9 readings for each measurement. […] From these values, fluorescence values for the suspension of mitochondria in the absence of NADH (blank) were subtracted. […]

Nc1nc2c(ncn2[C@@H]2O[C@H](COP(=O)(O)OP(=O)(O)O)[C@@H](O)[C@H]2O)c(=O)[nH]1 [GDP]
Oxygen consumption [1]: 149 nmoles of oxygen consumed per minute and per mg of protein | Oxygen consumption [2]: 155 nmoles of oxygen consumed per minute and per mg of protein | Change in rate of NADH consumption compared to basal levels (in words) [3]: reduced compared to basal levels
